Calls of active or inactive are those of the source. No cut-off for these calls is given here.
Assays:
HEL [1] = experiment: Cytotoxicity against HEL cells assessed as inhibition of cell growth at 0.008 uM relative to control; type: functional; details: Homo sapiens
HEL [2] = experiment: Synergistic cytotoxicity against HEL cells assessed as combination index for 25% activity in presence of decernotinib; type: functional, Homo sapiens
HEL [3] = experiment: Synergistic cytotoxicity against HEL cells assessed as combination index for 50% activity in presence of tofacitinib; type: functional, Homo sapiens
HEL [4] = experiment: Antitumor activity against HEL cells xenografted in Balb/c nude mouse assessed as induction of apoptosis in tumor at 32.5 mg/kg, ip administered once daily for 14 consecutive days in presence of 3-cyclopropyl-1-(3-{5-[(morpholin-4-yl)methyl]-1H-1,3-benzodiazol-2-yl}-1H-pyrazol-4-yl)urea by TUNEL assay relative to control; type: functional, organism-based; details: Homo sapiens, time 14.0 day
HEL [5] = experiment: Cytotoxicity against HEL cells assessed as inhibition of cell growth incubated in presence of tofacitinib; type: functional, cell-based; details: Homo sapiens
HEL [6] = experiment: Synergistic cytotoxicity against HEL cells assessed as combination index for 95% activity in presence of 3-cyclopropyl-1-(3-{5-[(morpholin-4-yl)methyl]-1H-1,3-benzodiazol-2-yl}-1H-pyrazol-4-yl)urea; type: functional, Homo sapiens
HEL [7] = experiment: Cytotoxicity against HEL cells assessed as inhibition of cell growth incubated in presence of decernotinib; type: functional, cell-based; details: Homo sapiens
HEL [8] = experiment: Antitumor activity against HEL cells xenografted in Balb/c nude mouse assessed as tumor growth inhibition at 32.5 mg/kg, ip administered once daily for 14 consecutive days relative to control; type: functional, Homo sapiens; details: 336 h, time 14 day, read-out: TGI
HEL [9] = experiment: Synergistic cytotoxicity against HEL cells assessed as combination index for 50% activity in presence of ruxolitinib; type: functional, Homo sapiens
HEL [10] = experiment: Synergistic cytotoxicity against HEL cells assessed as combination index for 95% activity in presence of ruxolitinib; type: functional, Homo sapiens
HEL [11] = experiment: Cytotoxicity against HEL cells assessed as inhibition of cell growth at 0.0016 uM relative to control; type: functional; details: Homo sapiens
HEL [12] = experiment: Cytotoxicity against HEL cells assessed as inhibition of cell growth; type: functional, cell-based; details: Homo sapiens
BaF3 = experiment: Cytotoxicity against mouse BaF3 cells harboring EPOR JAK2 V617F mutant; type: functional, cell-based
HEL [13] = experiment: Synergistic cytotoxicity against HEL cells assessed as combination index for 50% activity in presence of decernotinib; type: functional, Homo sapiens
HEL [14] = experiment: Cytotoxicity against HEL cells assessed as inhibition of cell growth incubated under dark condition in presence of 3-cyclopropyl-1-(3-{5-[(morpholin-4-yl)methyl]-1H-1,3-benzodiazol-2-yl}-1H-pyrazol-4-yl)urea; type: functional, cell-based; details: Homo sapiens
HEL [15] = experiment: Cytotoxicity against HEL cells assessed as inhibition of cell growth incubated in presence of 3-cyclopropyl-1-(3-{5-[(morpholin-4-yl)methyl]-1H-1,3-benzodiazol-2-yl}-1H-pyrazol-4-yl)urea; type: functional, cell-based; details: Homo sapiens
HEL [16] = experiment: Cytotoxicity against HEL cells assessed as inhibition of cell growth at 25 uM relative to control; type: functional; details: Homo sapiens
HEL [17] = experiment: Synergistic cytotoxicity against HEL cells assessed as combination index for 75% activity in presence of decernotinib; type: functional, Homo sapiens
HEL [18] = experiment: Synergistic cytotoxicity against HEL cells assessed as combination index for 95% activity in presence of decernotinib; type: functional, Homo sapiens
[19] = Cytotoxicity against HUVEC cells assessed as inhibition of cell growth incubated in presence of 3-cyclopropyl-1-(3-{5-[(morpholin-4-yl)methyl]-1H-1,3-benzodiazol-2-yl}-1H-pyrazol-4-yl)urea; type: toxicity, cell-based; details: human
HEL [20] = experiment: Cytotoxicity against HEL cells assessed as inhibition of cell growth at 5 uM relative to control; type: functional; details: Homo sapiens
HEL [21] = experiment: Cytotoxicity against HEL cells assessed as inhibition of cell growth at 1 uM relative to control; type: functional; details: Homo sapiens
HEL [22] = experiment: Cytotoxicity against HEL cells assessed as inhibition of cell growth at 0.04 uM relative to control; type: functional; details: Homo sapiens
HEL [23] = experiment: Synergistic cytotoxicity against HEL cells assessed as combination index for 75% activity in presence of ruxolitinib; type: functional, Homo sapiens
HEL [24] = experiment: Synergistic cytotoxicity against HEL cells assessed as combination index for 95% activity in presence of tofacitinib; type: functional, Homo sapiens
HEL [25] = experiment: Synergistic cytotoxicity against HEL cells assessed as combination index for 75% activity in presence of 3-cyclopropyl-1-(3-{5-[(morpholin-4-yl)methyl]-1H-1,3-benzodiazol-2-yl}-1H-pyrazol-4-yl)urea; type: functional, Homo sapiens
HEL [26] = experiment: Synergistic cytotoxicity against HEL cells assessed as combination index for 25% activity in presence of tofacitinib; type: functional, Homo sapiens
HEL [27] = experiment: Synergistic cytotoxicity against HEL cells assessed as combination index for 25% activity in presence of 3-cyclopropyl-1-(3-{5-[(morpholin-4-yl)methyl]-1H-1,3-benzodiazol-2-yl}-1H-pyrazol-4-yl)urea; type: functional, Homo sapiens
HEL [28] = experiment: Synergistic cytotoxicity against HEL cells assessed as combination index for 50% activity in presence of 3-cyclopropyl-1-(3-{5-[(morpholin-4-yl)methyl]-1H-1,3-benzodiazol-2-yl}-1H-pyrazol-4-yl)urea; type: functional, Homo sapiens
HEL [29] = experiment: Synergistic cytotoxicity against HEL cells assessed as combination index for 25% activity in presence of ruxolitinib; type: functional, Homo sapiens
HEL [30] = experiment: Cytotoxicity against HEL cells assessed as inhibition of cell growth irradiated with 450 nm light and incubated in presence of 3-cyclopropyl-1-(3-{5-[(morpholin-4-yl)methyl]-1H-1,3-benzodiazol-2-yl}-1H-pyrazol-4-yl)urea; type: functional, cell-based; details: Homo sapiens, light or radiation study
HEL [31] = experiment: Cytotoxicity against HEL cells assessed as inhibition of cell growth at 50 uM relative to control; type: functional; details: Homo sapiens
[32] = Cytotoxicity against HUVEC cells assessed as inhibition of cell growth; type: toxicity, cell-based; details: human
HEL [33] = experiment: Cytotoxicity against HEL cells assessed as inhibition of cell growth at 0.2 uM relative to control; type: functional; details: Homo sapiens
HEL [34] = experiment: Antitumor activity against HEL cells xenografted in Balb/c nude mouse assessed as tumor growth inhibition at 32.5 mg/kg, ip administered once daily for 14 consecutive days in presence of 3-cyclopropyl-1-(3-{5-[(morpholin-4-yl)methyl]-1H-1,3-benzodiazol-2-yl}-1H-pyrazol-4-yl)urea relative to control; type: functional, Homo sapiens; details: 336 h, time 14 day, read-out: TGI
HEL [35] = experiment: Cytotoxicity against HEL cells assessed as inhibition of cell growth at 100 uM relative to control; type: functional; details: Homo sapiens
HEL [36] = experiment: Cytotoxicity against HEL cells assessed as inhibition of cell growth incubated under hypoxic condition in presence of 3-cyclopropyl-1-(3-{5-[(morpholin-4-yl)methyl]-1H-1,3-benzodiazol-2-yl}-1H-pyrazol-4-yl)urea; type: functional, cell-based; details: Homo sapiens
HEL [37] = experiment: Synergistic cytotoxicity against HEL cells assessed as combination index for 75% activity in presence of tofacitinib; type: functional, Homo sapiens
HEL [38] = experiment: Cytotoxicity against HEL cells assessed as inhibition of cell growth incubated in presence of ruxolitinib; type: functional, cell-based; details: Homo sapiens

Work on `Cc1cnc(Nc2ccc(N3CCNCC3)cc2)nc1Nc1cccc(S(=O)(=O)NC(C)(C)C)c1` yielded an inhibition at 0.008 µM (HEL [1]) of -2.98%, a CI25 (HEL [2]) of 2.597 and a CI50 (HEL [3]) of 1.636. The Activity (HEL [4]) was “Active”, the IC50 (HEL [5]) was 1530 nM and the CI95 (HEL [6]) was 1.366. The IC50 (HEL [7]) was 3070 nM, the inhibition in vivo at 32.5 mg/kg (HEL [8]) was 62.3% and the CI50 (HEL [9]) was 2.528. The CI95 (HEL [10]) was 2.769, the inhibition at 0.0016 µM (HEL [11]) was 3.19% and the IC50 (HEL [12]) was 1160 nM. It also gave an IC50 (BaF3) of 276 nM, a CI50 (HEL [13]) of 2.226 and an IC50 (HEL [14]) of 1410 nM. It also gave an IC50 (HEL [15]) of 550 nM, an inhibition at 25 µM (HEL [16]) of 95% and a CI75 (HEL [17]) of 1.947. It also gave a CI95 (HEL [18]) of 1.628, an IC50 [19] of 1760 nM and an inhibition at 5 µM (HEL [20]) of 70.9%. For the same molecule, the inhibition at 1 µM (HEL [21]) was 40.3%, the inhibition at 0.04 µM (HEL [22]) was 14.2% and the CI75 (HEL [23]) was 2.613. The CI95 (HEL [24]) was 0.948, the CI75 (HEL [25]) was 0.972 and the CI25 (HEL [26]) was 2.161. It also gave a CI25 (HEL [27]) of 0.683, a CI50 (HEL [28]) of 0.809 and a CI25 (HEL [29]) of 2.447. The IC50 (HEL [30]) was 2180 nM, the inhibition at 50 µM (HEL [31]) was 94.5% and the IC50 [32] was 960 nM. For the same molecule, the inhibition at 0.2 µM (HEL [33]) was 16.5%, the inhibition in vivo at 32.5 mg/kg (HEL [34]) was 91.2% and the inhibition at 100 µM (HEL [35]) was 95.6%. It also gave an IC50 (HEL [36]) of 1340 nM, a CI75 (HEL [37]) of 1.243 and an IC50 (HEL [38]) of 2450 nM.

From ChEMBL document CHEMBL5385890, “A JAK tyrosine kinase and pseudokinase Co-inhibition strategy combines enhanced potency and on-demand activation” (Eur J Med Chem, 2023)
